Values of other authors, collected in patent US20100234277A1, “COADMINISTRATION OF ALPHA-FETOPROTEIN AND A DISEASE MODIFYING ANTI-RHEUMATIC DRUG FOR TREATING INFLAMMATORY ARTHRITIC DISEASE” (priority 2006, published 2010).

Conditions: in vivo

CN(Cc1cnc2nc(N)nc(N)c2n1)c1ccc(C(=O)N[C@@H](CCC(=O)O)C(=O)O)cc1 [methotrexate, N-[4-[[(2,4-diamino-6-pteridinyl)methyl]methylamino]benzoyl]-L-glutamic acid]
individuals with rheumatoid arthritis (RA) that respond favorably to treatment: Approximately 70%
